The test system of this experiment is urine flow. Put plainly: renal effects (urine flow), intraduodenal administration. The settings on record: test run 3 times. It is filed as in vivo, Sprague-Dawley rats. As for the experimental part: The tetrahydroquinoxaline produced in Example 1 was tested for renal and blood pressure effects using the following method.
Young male (20-24 weeks old) Sprague-Dawley rats were used. Under ketamine (60 mg/kg b.wt. i.m.) and pentobarbital (i.p. to effect) anesthesia, medical grade plastic tubes were implanted into the abdominal aorta and vena cava via the femoral vessels. In addition, a Silastic-covered stainless steel cannula were sewn in the urinary bladder. After the surgery, the rats were housed individually and were allowed free access to food and water until the day of the experiment.
For about 7 to 10 days before surgery and during recovery, the rats were accustomed to a restraining cage by placement in the cage for 2 to 3 hours every 2nd and 3rd day. The cage was designed for renal clearance studies (a model G Restrainer sold by Braintree Scientific, Inc., Braintree, Mass.). The animals' adjustment to the cage was judged by the stability of blood pressure and heart rate.
For an experiment, a rat was placed in the restraining cage, and the arterial line was connected to a Statham pressure transducer and a Beckman Dynograph R61 to monitor the mean arterial blood pressure, hereinafter referred to as MAP. The venous line was connected to an infusion pump system for infusion of replacement fluid. The tetrahydroquinoxaline was administered intraduodenally by cannula. The bladder cannula was extended with a silastic tube to facilitate collection of urine in preweighed tubes. The volume of urine was measured gravimetrically. Body weight was recorded before and after the experiment.
Throughout the experiments, 0.9% NaCl containing 10% polyfructosan (Inutest) and 1% sodium PAH was infused at a rate of 20 microliters/min. An equilibration period of 60 minutes was followed by two consecutive 30 minute control clearance periods. Then, the tetrahydroquinoxaline was administered for 90 minutes. Urine collection was resumed 10 minutes after the start of tetrahydroquinoxaline administration. By this time the washout of the bladder cannula dead space (approximately 200 microliters) was completed. Three additional clearance measurements were made. Blood samples (150 microliters) were collected at the midpoint of urine collections. Plasma was separated and saved for analyses, and the cells were resuspended in saline and returned to the animals. Water and sodium loss was carefully replaced i.v. by a variable speed infusion pump.

Take `Brc1c(NC2=NCCN2)ccc2c1NCCN2` [Example 1, 5-Bromo-6-(2-imidazolin-2-ylamino)-1,2,3,4-tetrahydroquinoxaline]: the “Increase in Urine Flow” value is given as 0 microliters/min./100 g of body (0.01 mg/kg); 4 microliters/min./100 g of body (0.03 mg/kg); 16 microliters/min./100 g of body (0.1 mg/kg, P less than 0.05); 24 microliters/min./100 g of body (0.3 mg/kg, P less than 0.05); 32 microliters/min./100 g of body (1 mg/kg, P less than 0.05).

Source of the values: patent US5077292A, “(2-imidazolin-2-ylamino) tetrahydroquinoxalines and methods for using same” (priority 1989, dated 1991).
